Source: the supplement of paper PMC10331698
± gives the standard deviation of the averaged measurements.

Columns and labels:
Test in all cases: level (log10 ratio to DMSO vehicle control); higher = higher biomarker level / cell amount than vehicle control
[1] = compound: C=CC(F)(F)C(F)(F)C(F)(F)C(F)(F)C(F)(F)C(F)(F)C(F)(F)C(F)(F)C=C [1,8-Divinylperfluorooctane]; conditions: in DMSO
Protocol: (§1)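 BioMAP Diversity Plus panel of 12 human primary cell co-culture systems (3C, 4H, LPS, SAg, BT, BF4T, BE3C, CASM3C, HDF3CGF, KF3CT, MyoF, Mphg). Compounds were added 1 h before stimulation and left for 24 h (MyoF 48 h; BT 72 h for soluble read-outs or 6 d for IgG). Biomarkers were read by ELISA, cytotoxicity by SRB, PBMC viability and proliferation by Alamar Blue. Each well value was divided by the mean of 8 DMSO control wells on the same plate and log10 transformed; duplicate blinded samples were tested at 4 concentrations.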

[2] = compound: FC(F)(F)C(F)(C(F)(F)F)C(F)(F)C(F)(F)CC1CO1 [3-(Perfluoro-3-methylbutyl)-1,2-propenoxide]; conditions: in DMSO
Protocol: as §1

[3] = compound: FC(F)C(F)(F)COCC1CO1 [((2,2,3,3-Tetrafluoropropoxy)methyl)oxirane]; conditions: in DMSO
Protocol: as §1

[4] = compound: O=C(O)C(F)(F)C(F)(F)C(F)F [4H-Perfluorobutanoic acid]; conditions: in DMSO
Protocol: as §1

[5] = compound: O=C(O)C(F)(F)C(F)(F)OC(F)(F)F [Perfluoro-3-methoxypropanoic acid]; conditions: in DMSO
Protocol: as §1

[6] = compound: OCCC(F)(F)C(F)(F)C(F)(F)C(F)(F)C(F)(F)C(F)(F)F [6:2 Fluorotelomer alcohol]; conditions: in DMSO
Protocol: as §1

[7] = compound: OCCCC(F)(F)C(F)(F)C(F)(F)C(F)(F)C(F)(F)C(F)(F)C(F)(F)F [7:3 Fluorotelomer alcohol]; conditions: 6700 nM; in DMSO
Protocol: as §1

| Test System | level (log10) ([1]; 6700 nM) | level (log10) ([1]; 20000 nM) | level (log10) ([2]; 6700 nM) | level (log10) ([2]; 20000 nM) | level (log10) ([3]; 6700 nM) | level (log10) ([3]; 20000 nM) | level (log10) ([3]; 60000 nM) | level (log10) ([4]; 6700 nM) | level (log10) ([4]; 20000 nM) | level (log10) ([4]; 60000 nM) | level (log10) ([5]; 6700 nM) | level (log10) ([5]; 20000 nM) | level (log10) ([5]; 60000 nM) | level (log10) ([6]; 6700 nM) | level (log10) ([6]; 20000 nM) | level (log10) [7] |
| --- | --- | --- | --- | --- | --- | --- | --- | --- | --- | --- | --- | --- | --- | --- | --- | --- |
| 3C:CD62E/E-Selectin | -0.0305 ± 0.025 | -0.014 ± 0.024 | -0.0215 ± 0.0078 | -0.0115 ± 0.013 | 0.0085 ± 0.0021 | 0.0105 ± 0.03 | 0.003 ± 0.047 | -0.024 | -0.0235 ± 0.0092 | 0.017 ± 0.03 | 0.0015 ± 0.016 | -0.0155 ± 0.016 | 0.0005 ± 0.0078 | -0.0075 ± 0.043 | -0.024 ± 0.042 | 0.002 ± 0.014 |
| CASM3C:HLA-DR | -0.0125 ± 0.011 | -0.0155 ± 0.0092 | -0.0105 ± 0.026 | -0.0185 ± 0.0092 | 0.001 ± 0.0085 | -0.001 ± 0.0099 | 0.0225 ± 0.043 | -0.007 ± 0.0028 | 0.0435 ± 0.033 | 0.006 ± 0.024 | -0.035 ± 0.033 | -0.0245 ± 0.0092 | 0.004 ± 0.041 | 0 ± 0.025 | -0.025 ± 0.023 | 0.008 ± 0.0071 |
| CASM3C:LDLR | 0.008 | 0.0495 ± 0.019 | -0.012 ± 0.017 | -0.002 ± 0.011 | -0.0165 ± 0.021 | -0.02 ± 0.0042 | 0.007 ± 0.024 | -0.0785 ± 0.037 | -0.039 ± 0.0042 | -0.0235 ± 0.026 | 0.0105 ± 0.016 | 0.01 ± 0.028 | 0.013 ± 0.013 | 0.031 ± 0.011 | 0.023 ± 0.0028 | 0.012 ± 0.0028 |
| KF3CT:CXCL8/IL-8 | -0.0035 ± 0.033 | 0.011 ± 0.0057 | -0.0155 ± 0.0078 | 0.0035 ± 0.013 | -0.024 ± 0.02 | -0.0035 ± 0.0092 | -0.001 ± 0.0071 | 0.0025 ± 0.0078 | 0.01 ± 0.0085 | 0.017 ± 0.0042 | 0.007 ± 0.016 | 0.028 ± 0.031 | 0.017 ± 0.02 | 0 ± 0.0057 | -0.0165 ± 0.005 | 0.0035 ± 0.043 |
| KF3CT:SRB | -0.011 ± 0.018 | -0.0235 ± 0.005 | -0.004 ± 0.0042 | -0.0085 ± 0.0064 | -0.0085 ± 0.0035 | -0.0055 ± 0.0092 | 0.012 ± 0.034 | -0.005 ± 0.0071 | -0.0065 ± 0.0064 | -0.008 ± 0.0014 | -0.0145 ± 0.0035 | -0.009 ± 0.0014 | -0.002 ± 0.013 | -0.0085 ± 0.0078 | -0.0225 ± 0.005 | -0.002 ± 0.0071 |
| CASM3C:SRB | 0.002 ± 0.0042 | -0.003 ± 0.0014 | 0.004 ± 0.0042 | -0.001 ± 0.014 | -0.0005 ± 0.015 | -0.003 ± 0.0042 | 0.0015 ± 0.00071 | -0.0015 ± 0.0078 | -0.002 ± 0.0071 | 0 ± 0.0099 | 0.0025 ± 0.005 | -0.0045 ± 0.005 | 0.0075 ± 0.015 | 0.0075 ± 0.005 | -0.003 ± 0.0028 | 0.006 ± 0.0028 |
| BE3C:Keratin 8/18 | 0.0015 ± 0.005 | -0.0165 ± 0.005 | 0.0005 ± 0.03 | 0.001 ± 0.03 | -0.004 ± 0.0071 | -0.019 ± 0.031 | -0.0045 ± 0.0021 | -0.017 ± 0.014 | -0.021 ± 0.011 | 0.0075 ± 0.00071 | -0.0155 ± 0.0092 | -0.006 ± 0.017 | -0.003 ± 0.024 | -0.0095 ± 0.0064 | -0.0115 ± 0.00071 | 0.0155 ± 0.032 |
| 3C:CCL2/MCP-1 | -0.0055 ± 0.0021 | 0.031 ± 0.025 | -0.0115 ± 0.0064 | -0.0125 ± 0.025 | 0.0045 ± 0.025 | 0.016 ± 0.028 | 0.0215 ± 0.042 | -0.02 ± 0.061 | -0.006 ± 0.05 | 0.0215 ± 0.03 | -0.0125 ± 0.0064 | -0.0095 ± 0.00071 | 0.0165 ± 0.0064 | 0.008 ± 0.014 | -0.008 ± 0.0071 | 0.0045 ± 0.011 |
| lMphg:CD69 | -0.013 ± 0.0042 | -0.011 ± 0.014 | -0.0115 ± 0.054 | -0.0375 ± 0.069 | -0.048 ± 0.02 | -0.001 ± 0.0071 | -0.028 ± 0.033 | 0.0185 ± 0.032 | -0.0175 ± 0.0021 | 0.0095 ± 0.019 | -0.0495 ± 0.043 | -0.0005 ± 0.026 | 0.017 ± 0.04 | -0.0205 ± 0.0078 | -0.017 ± 0.0028 | -0.0115 ± 0.011 |
| lMphg:CCL2/MCP-1 | -0.0195 ± 0.013 | 0.0125 ± 0.03 | -0.0165 ± 0.012 | 0.0075 ± 0.012 | -0.039 ± 0.034 | -0.018 ± 0.048 | -0.0095 ± 0.029 | -0.024 ± 0.027 | -0.0125 ± 0.0035 | 0.0005 ± 0.021 | -0.0175 ± 0.025 | -0.0225 ± 0.029 | -0.0075 ± 0.028 | -0.019 ± 0.0042 | -0.025 ± 0.016 | 0.001 ± 0.0057 |
| 3C:CD142/Tissue Factor | -0.068 ± 0.041 | -0.0205 ± 0.061 | -0.0095 ± 0.044 | -0.0125 ± 0.047 | -0.0175 ± 0.07 | -0.032 ± 0.05 | -0.036 ± 0.071 | -0.004 ± 0.0014 | -0.021 ± 0.0099 | 0.0105 ± 0.005 | -0.0125 ± 0.066 | -0.049 ± 0.034 | -0.0095 ± 0.057 | -0.003 ± 0.044 | -0.014 ± 0.025 | -0.007 ± 0.0057 |
| BE3C:tPA | -0.0145 ± 0.0021 | -0.0015 ± 0.015 | -0.0215 ± 0.04 | -0.037 ± 0.033 | -0.006 ± 0.031 | -0.015 ± 0.024 | -0.0165 ± 0.00071 | -0.016 ± 0.0014 | -0.0305 ± 0.012 | -0.006 ± 0.016 | -0.007 ± 0.04 | -0.0075 ± 0.019 | 0.004 ± 0.0071 | -0.0135 ± 0.018 | -0.004 ± 0.0057 | -0.014 ± 0.025 |
| MyoF:MMP-1 | -0.054 ± 0.037 | 0.034 ± 0.099 | -0.007 ± 0.0085 | -0.014 ± 0.0057 | 0.0115 ± 0.0035 | -0.031 ± 0.018 | 0.0045 ± 0.005 | -0.0355 ± 0.07 | -0.07 ± 0.054 | 0.022 ± 0.044 | -0.0135 ± 0.0064 | 0.0055 ± 0.011 | 0.0105 ± 0.043 | 0 ± 0.016 | -0.0035 ± 0.005 | -0.004 |
| HDF3CGF:CXCL10/IP-10 | 0.0205 ± 0.035 | 0.017 ± 0.035 | 0.003 ± 0.021 | -0.034 ± 0.075 | -0.0085 ± 0.032 | -0.033 ± 0.0057 | -0.0175 ± 0.023 | -0.0145 ± 0.016 | 0.0025 ± 0.0021 | 0.0085 ± 0.012 | 0.001 ± 0.011 | 0.0055 ± 0.011 | -0.0135 ± 0.021 | -0.009 ± 0.0099 | -0.0295 ± 0.0092 | -0.047 ± 0.03 |
| KF3CT:IL-1alpha | -0.0455 ± 0.013 | -0.0075 ± 0.057 | -0.0105 ± 0.013 | -0.0065 ± 0.015 | 0.006 ± 0.011 | -0.0085 ± 0.013 | 0.0055 ± 0.039 | 0.001 ± 0.05 | -0.0055 ± 0.005 | 0.0075 ± 0.06 | 0.0455 ± 0.005 | 0.01 ± 0.0042 | 0.0225 ± 0.00071 | 0.003 ± 0.041 | -0.0085 ± 0.011 | -0.0135 ± 0.011 |
| KF3CT:PAI-I | 0.0215 ± 0.00071 | 0.018 ± 0.013 | 0 ± 0.035 | -0.011 ± 0.037 | 0.004 | -0.0085 ± 0.005 | -0.0015 ± 0.012 | 0.0015 ± 0.022 | 0.046 ± 0.02 | -0.0075 ± 0.073 | -0.0035 ± 0.0021 | -0.0045 ± 0.0035 | -0.0195 ± 0.026 | -0.0155 ± 0.0035 | -0.0035 ± 0.011 | -0.017 ± 0.025 |
| MyoF:TIMP-1 | -0.0315 ± 0.054 | 0.01 ± 0.076 | -0.0165 ± 0.022 | -0.047 ± 0.052 | 0.0165 ± 0.018 | -0.0295 ± 0.0092 | -0.001 ± 0.023 | 0.0045 ± 0.039 | 0.023 ± 0.016 | 0.0465 ± 0.076 | 0.015 ± 0.055 | 0.0185 ± 0.033 | 0.0455 ± 0.012 | 0.002 ± 0.04 | 0.0085 ± 0.047 | 0.003 ± 0.017 |
| KF3CT:MMP-9 | -0.0395 ± 0.028 | -0.029 ± 0.018 | -0.016 ± 0.03 | -0.0265 ± 0.039 | 0.0085 ± 0.0064 | -0.005 ± 0.011 | 0.012 ± 0.011 | -0.024 ± 0.055 | -0.0395 ± 0.012 | -0.0775 ± 0.00071 | -0.002 ± 0.0085 | 0.001 ± 0.0071 | 0.01 ± 0.014 | -0.007 ± 0.035 | -0.0045 ± 0.015 | -0.019 ± 0.018 |
